Here are results for three compounds from ChEMBL document CHEMBL2203048, “Synthesis and biological evaluation of a water-soluble derivative of the potent V-ATPase inhibitor archazolid” (Bioorg Med Chem Lett, 2012).

Calls of active or inactive are those of the source. No cut-off for these calls is given here.

For data set [1], the target named is V-type proton ATPase subunit C (Manduca sexta) (UniProt Q9U5N1). The data set can be described thus: Inhibition of tobacco hornworm V-ATPase c subunit.
The target is the same in data set [2]. In words: Binding affinity to tobacco hornworm V-ATPase c subunit in 4:4:1 CDCl3:MeOH-d4:D2O by NMR analysis.
Data set [3] in a line: Solubility in 17 mM DHPC at 1 mM by NMR analysis. Format: physicochemical. The settings on record: 1000 µM.
Data set [4] is described as follows: Solubility of the compound in 5:95 CNCD3-d6:D2O solution at 1 mM by NMR analysis. Format: physicochemical. The settings on record: 1000 µM.
Data set [5] in a line: Solubility in 2 mM LMPC at 0.5 mM by NMR analysis. Format: physicochemical. The settings on record: 500 µM.
Data set [6] is described as follows: Solubility of the compound in 10:90 MeOH-d4:D2O solution at 0.5 mM by NMR analysis. Format: physicochemical. The settings on record: 500 µM.
The nature of data set [7]: Solubility of the compound in 40:40:1 CDCl3:MeOH-d4:D2O at 1 mM by NMR analysis. Format: physicochemical. The settings on record: 1000 µM.
Data set [8] in a line: Solubility of the compound in 50:50 DMSO-d6:D2O solution at 1 mM by NMR analysis. The note with it: 1000 µM. Format: physicochemical.
Data set [9] can be described thus: Solubility of the compound in 10:90 DMSO-d6:D2O solution at 0.5 mM by NMR analysis. Format: physicochemical. The settings on record: 500 µM.
Data set [10] in a line: Solubility in 0.4 mM OG at 0.5 mM by NMR analysis. It counts as physicochemical. The note with it: 500 µM.
A short description of data set [11]: Solubility of the compound in 5:95 EtOH-d6:D2O solution at 0.5 mM by NMR analysis. The note with it: 500 µM. Format: physicochemical.
Data set [12] can be described thus: Solubility of the compound in 5:95 MeOH-d4:D2O solution at 0.5 mM by NMR analysis. Format: physicochemical. The settings on record: 500 µM.
The nature of data set [13]: Solubility of the compound in 5:95 EtOH-d6:D2O solution at 1 mM by NMR analysis. It counts as physicochemical. The settings on record: 1000 µM.
Data set [14] can be described thus: Solubility of the compound in 42:9:49 EtOH-d6:CNCD3:D2O solution at <0.5 mM by NMR analysis. Format: physicochemical.
The nature of data set [15]: Solubility in 3 mM DPC at 0.5 mM by NMR analysis. Format: physicochemical. The settings on record: 500 µM.
The nature of data set [16]: Solubility in 50 mM OG at 0.5 mM by NMR analysis. The note with it: 500 µM. It counts as physicochemical.
A short description of data set [17]: Solubility in 4 mM LDAO at 1 mM by NMR analysis. Format: physicochemical. The note with it: 1000 µM.

Chain of V-type proton ATPase subunit C (Manduca sexta) (Q9U5N1 whole entry): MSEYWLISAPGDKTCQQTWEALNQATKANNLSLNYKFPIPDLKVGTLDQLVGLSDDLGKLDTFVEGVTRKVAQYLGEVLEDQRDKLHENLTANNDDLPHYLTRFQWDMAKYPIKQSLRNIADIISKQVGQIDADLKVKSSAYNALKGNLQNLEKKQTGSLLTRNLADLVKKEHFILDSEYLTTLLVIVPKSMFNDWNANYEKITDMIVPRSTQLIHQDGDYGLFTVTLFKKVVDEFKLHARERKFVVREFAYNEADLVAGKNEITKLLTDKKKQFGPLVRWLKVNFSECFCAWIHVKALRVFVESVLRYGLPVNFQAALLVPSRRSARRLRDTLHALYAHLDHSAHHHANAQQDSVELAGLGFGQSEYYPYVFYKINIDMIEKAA

`C=CCOP(=O)(O)CC(=O)O[C@@H]1/C=C/C(C)=C\C(C)=C/[C@H](C)[C@H](OC(=O)CP(=O)(O)OCC=C)/C=C(\C)C/C=C/C(=O)O[C@H](c2csc([C@H](CC(C)C)OC(=O)NC)n2)[C@@H](C)/C=C/C=C(\C)[C@@H](OC)[C@H]1C`: the inhibition result in data set [1] was “inactive”.
Consider `CNC(=O)O[C@@H](CC(C)C)c1nc([C@H]2OC(=O)/C(C)=C/C/C(C)=C/[C@@H](O[C@@H]3O[C@H](CO)[C@@H](O)[C@H](O)[C@H]3O)[C@@H](C)\C=C(C)/C=C(C)\C=C\[C@@H](O)[C@H](C)[C@H](OC)/C(C)=C/C=C/[C@@H]2C)cs1`, for which the result in [2] was inactive.
As for `CNC(=O)O[C@@H](CC(C)C)c1nc([C@H]2OC(=O)/C(C)=C/C/C(C)=C/[C@@H](O)[C@@H](C)\C=C(C)/C=C(C)\C=C\[C@@H](O)[C@H](C)[C@H](OC)/C(C)=C/C=C/[C@@H]2C)cs1` [ARCHAZOLID A], the solubility result in data set [3] was “Insoluble”; in [4] it was “Insoluble”; in data set [5] it was “Insoluble”; in data set [6], “Insoluble”; in data set [7], “soluble”; in data set [8] it was “Insoluble”. In addition, the solubility entry in data set [9], in [10], in data set [11], in [12], in data set [13] and in data set [14] was “Insoluble” each time. Besides, the solubility entry in data set [15], in data set [16] and in data set [17] was “Insoluble” throughout. In data set [2], the result was inactive.
